These results are taken from patent US8563259B2, “Complement-mediated thrombophilic assay” (The Trustees of the University of Pennsylvania, priority 2007, dated 2013).

The test system of this experiment is TF expression induced by activated complement in normal primary cells (monocytes or neutrophils). The experiment in a line: modified PT (mPT) assay with supernatant of healthy primary cells stimulated with patient serum, with or without complement inhibitor. It counts as cell-based, human. The source says:
To test serum for complement activating activity, serum was obtained from patients diagnosed with various disorders. Serum was obtained from patients diagnosed with: antiphospholipid syndrome (APS; n=26), systemic lupus erythymatosus (SLE; n=9), rheumatoid arthritis (n=12), sepsis (n=6), metastatic cancer (n=8) and inherited hypercoagulation (n=9). Serum was also obtained from healthy individuals (n=22).
Freshly obtained primary cells (monocytes or neutrophils) obtained from healthy donors were suspended in phosphate buffered saline (PBS). In parallel, the cells were stimulated with patient serum and with patient serum that was pre-incubated for 30 minutes with either 15 μM Compstatin or 10 μM C5aR antagonist to inhibit complement. The cells were incubated with serum for approximately 2 to 2.5 hours at 37° C. Subsequently, supernatant from the serum-incubated cells was obtained by centrifugation at 1000×g for 10 minutes. The supernatant was then assessed in a modified PT assay.
In a standard PT assay, 100 μl patient plasma is mixed with 200 μl commercial thromboplastin (International Sensitivity Index (ISI) 1.0 or ISI 1.9), and time of clotting is assessed by measuring in seconds the time required for clot formation after thromboplastin is added. In the modified PT (mPT) assay, 100 μl platelet-poor plasma (PPP) from a healthy subject was used and about 120-130 μl of the commercial thromboplastin (also called tissue factor) was replaced with PBS (the total volume of clotting reaction remains stable, at 300 μl) in order to obtain a technical prolongation of the clotting time from about 12-13 seconds to about 32-37 seconds. To test the effect of the test serum on TF expression of healthy primary blood cells, the about 120-130 μl PBS was replaced with about 120-130 μl of supernatant from the primary cells stimulated with test serum. All mPT assays were performed independently by two experienced physicians.
When complement is activated in the test serum, the use of 120-130 μl supernatant in the mPT test reduces the clotting time from about 32-37 sec to about 18-20 seconds. This reduction in clotting time occurs because TF expression is induced in the normal primary cells by the activated complement. When the activated complement in the test serum has been inhibited (e.g., with Compstatin or C5aR antagonist), TF expression is not induced by activated complement in normal primary cells and the mPT remains unchanged (about 32 to about 37 seconds).

For the compound `CC[C@H](C)[C@H](N)C(=O)N[C@H]1CSSC[C@@H](C(=O)N[C@H](C(N)=O)[C@@H](C)O)NC(=O)[C@H](CCCN=C(N)N)NC(=O)[C@H](Cc2cnc[nH]2)NC(=O)[C@H](Cc2cnc[nH]2)NC(=O)CNC(=O)[C@H](Cc2c[nH]c3ccccc23)NC(=O)[C@H](CC(=O)O)NC(=O)[C@H](CCC(N)=O)NC(=O)[C@H](C(C)C)NC(=O)[C@H](C(C)C)NC1=O` [Compstatin, Ile-Cys-Val-Val-Gln-Asp-Trp-Gly-His-His-Arg-Cys-Thr], the “sensitivity of the mPT test after Compstatin-mediated inhibition of complement (pro-coagulant activity completely abolished)” value (APS and SLE patients) turned out to be 100%. The “Clotting time” value by setting is: (APS serum (n = 26), serum pre-incubated 30 minutes with 15 μM Compstatin or 10 μM C5aR antagonist) 31.11 ± 0.26 s; (Acute sepsis serum (n = 6), serum pre-incubated 30 minutes with 15 μM Compstatin or 10 μM C5aR antagonist) 28.97 ± 0.80 s; (Healthy donor serum (n = 22), serum pre-incubated 30 minutes with 15 μM Compstatin or 10 μM C5aR antagonist) 31.19 ± 0.16 s; (Inherited hypercoagulation serum (n = 9), serum pre-incubated 30 minutes with 15 μM Compstatin) 29.01 ± 1.08 s; (Metastatic cancer serum (n = 8), serum pre-incubated 30 minutes with 15 μM Compstatin) 26.07 ± 1.21 s; (Rheumatoid arthritis serum (n = 12), serum pre-incubated 30 minutes with 15 μM Compstatin) 30.26 ± 0.81 s. Further, the “Clotting time” value (SLE serum (n = 9), serum pre-incubated 30 minutes with 15 μM Compstatin or 10 μM C5aR antagonist) came out at 31.26 ± 0.17 s. In addition, the “difference in clotting time before and after inhibition in acute sepsis, as share of the time difference for either APS or SLE serum” value (acute sepsis serum versus APS or SLE serum) was “about 30%”. Also, the “effect of treatment on clotting time” value (sera from septic patients) was “partial inhibition”.
